Assay results as given in US6235493A, “Amino acid substituted-cresyl violet, synthetic fluorogenic substrates for the analysis of agents in individual in vivo cells or tissue” (priority 1998, dated 2001).

Assays:
[1] = Fluorescence properties of cresyl violet (image analysis calibration); type: physicochemical
Method: Calibration was performed by measuring fluorescence of a series of solutions of 0-10 μM cresyl violet in Krebs-Henseleit medium. These solutions were also used to test the properties of cresyl violet for quantitative purposes. The depth of the incubation chamber was 24 μm and the size of the area measured 240×170 μm. The total volume that was measured was thus 0.001 μl. The amount of fluorescence captured by image analysis was linearly related with concentrations up to at least 10 μM when measured in a thin film of 24 μm which approximates the diameter of cells (FIG. 2A). Thus, cresyl violet has fluorescence properties that are necessary for quantitative fluorescence microscopy (36B). On the basis of FIG. 2A, it was calculated that 100 gray values corresponded with 6.7 fmoles cresyl violet. […] Flow cytometric analysis of production of cresyl violet in hepatorcytes was performed with a FAC-Star Plus (Becton and Dickinson, San Jose, Calif., USA) using the software program CellQuest (version 1.0; Becton and Dicksinson). Prior to analysis, cells were stained with the DNA dye Hoechst 3.3.3.4.2 (36 ,μg/ml; Hoechst Holland, Amsterdam, The Netherlands) for 30 min at 0° C. Analysis was started by established forward scatter and then substrate was added at t=0. Analysis was performed at a flow rate of 200 cells/sec. The parameters measured were time, forward scatter, fluorescence of Hoechst 3.3.3.4.2 dye (excitation at 350 nm, emission at 485 nm with a band width of 20 nm), and fluorescence of cresyl violet (excitation at 514 nm, emission at 630 nm with a band width of 22 nm). Filters were obtained from Becton and Dickenson. The power of the lasers was set at […]. Fluorometric analysis with time was carried out with a Perkin-Elmer LS 50 fluorescence spectrometer (Perkin-Elmer, Gouda, The Netherlands) under continuous magnetic stirring. Cuvettes with a light path of 1 cm were used. Excitation was performed at 591 nm with a slid width of 10 nm and emission was measured at 628 nm (slid width 10 nm). The first measurement was made at 5 sec after mixing cells and incubation medium.

[2] = Water solubility (stated); type: physicochemical; conditions: free cresyl violet; avoids accumulation around mitochondria
[3] = target: T1, dipeptidyl peptidase IV (DPPIV) (CD26) (Rattus norvegicus, UniProt P14740); assay: cell-based; type: cell-based; conditions: for mode of inhibition of DPPIV: individual living rat hepatocytes, image analysis
T1 construct: individual freshly isolated living rat hepatocytes; endogenous in cells; host or cells: hepatocytes freshly isolated from livers of male Wistar rats
Method: Hepatocytes were isolated by collagenase perfusion of livers of male Wistar rats (200-250 g; HSD Animal Farm, Zeist, The Netherlands) after 24 h of starvation as described previously (30). The animals were exposed to a controlled dark-light cycle (light: 7:00 a.m.-7:00 p.m.) throughout the acclimatization period of at least 1 week. Before starvation, animals had free access to food (standard chow diet; Hope Farms, Woerden, The Netherlands) and water. The animals had always free access to water. During operation, the animals were under Nembutal anaesthesia. Animal care was performed according to the guidelines of the University of Amsterdam. Hepatocytes (5-10 mg dry mass/ml) were kept in Krebs-Henseleit bicarbonate medium containing 1.3 mM Ca^2+, 10 mM sodium Hepes (pH 7.4), 20 mM glucose and 1 mM octanoate on ice until enzyme assays. Homogenates were prepared by freezing cell suspensions in liquid nitrogen and subsequent thawing. One volume of homogenates and 10 volumes of 20 mM Tris-HCI buffer (pH 7.4) containing 1% (v/v) Triton X-100 were mixed and incubated at 4° C. under constant stirring for 60 min. One part of these homogenates was used for the determination of DPPIV activity. Another part was centrifuged (40,000 x g, 4° C., 20 min) and the supernatants were used as membrane fractions for the determination of DPPIV activity.
Analysis of DPPIV Activity
DPPIV activity was determined in hepatocytes using 6 approaches. Activity was determined in living hepatocytes with confocal scanning laser microscopy, image processing and analysis, flow cytometry, and fluorometry. Fluorometry was also used for the determination of activity in homogenates of hepatocytes and in membrane fractions of hepatocytes. Incubations were started at t=0 by adding an aliquot of 60 μl hepatocytes to 3 ml Krebs-Henseleit medium containing 0-50 μM (Ala-Pro)^2 -cresyl violet in the presence or absence of 0-50 μM Ala-Pip^p (OPh-4-Cl)2 (Enzyme Systems Products), which is a selective DPPIV inhibitor (31A,32A). Substrate and inhibitor were dissolved first in dimethylsulfoxide. The final concentration of dimethylsulfoxide in the incubation medium was 0.5% (v/v). Incubations were carried out at 20° C. Confocal scanning laser microscopy was performed after 100 μl of an assay medium containing hepatocytes was brought into a well formed by a stainless steel ring attached to a glass slide (33A). Images of cells were captured in time with a Leica confocal scanning laser microscope fitted to a Leica Fluovert inverted microscope equipped with a PL APO oil-immersion objective (63×, NA 1.40). Excitation was performed at 568 nm and fluorescence was captured at >595 nm. The pinhole aperture was set to provide an optimized image (34A). Cells were subjected to optical serial sectioning after each 60 sec of incubation up to 300 sec. Images in the X-Y plane were recorded with intervals of 0.5 μm in the Z direction. Each optical section was averaged 8 times. Images were recorded din a 512×512 pixel format. The size of each pixel represented 0.015 μm^2 in the object. Confocal data stacks of 20-30 optical sections were processed with standard Leica software package.
Image analysis was performed by transferring an aliquot of 100, μl of an incubation medium containing hepatocytes into an incubation chamber that consisted of an object glass and a cover glass separated by a spacer made of adhesion tape with a thickness of […]. The object glass was set on the stage of a fluorescencee microscope (Leitz Dialux 20, Wetzlar, Germany) with a ×25 objective (NA 0.75). A drop of medium was placed beside the cover glass and the chamber became filled by capillary forces in a few seconds. […]

[4] = tested on: dipeptidyl peptidase IV (DPPIV); assay: DPPIV activity in membrane fractions of hepatocytes (fluorometry); type: biochemical, rat; conditions: membrane fractions of the same hepatocyte suspensions
Method: Hepatocytes were isolated by collagenase perfusion of livers of male Wistar rats (200-250 g; HSD Animal Farm, Zeist, The Netherlands) after 24 h of starvation as described previously (30). The animals were exposed to a controlled dark-light cycle (light: 7:00 a.m.-7:00 p.m.) throughout the acclimatization period of at least 1 week. Before starvation, animals had free access to food (standard chow diet; Hope Farms, Woerden, The Netherlands) and water. The animals had always free access to water. During operation, the animals were under Nembutal anaesthesia. Animal care was performed according to the guidelines of the University of Amsterdam. […]
DPPIV activity was determined in hepatocytes using 6 approaches. Activity was determined in living hepatocytes with confocal scanning laser microscopy, image processing and analysis, flow cytometry, and fluorometry. […] Excitation was performed at 568 nm and fluorescence was captured at >595 nm. […] Images in the X-Y plane were recorded with intervals of 0.5 μm in the Z direction. […] Images were recorded din a 512×512 pixel format. […]
Calibration was performed by measuring fluorescence of a series of solutions of 0-10 μM cresyl violet in Krebs-Henseleit medium. These solutions were also used to test the properties of cresyl violet for quantitative purposes. The depth of the incubation chamber was 24 μm and the size of the area measured 240×170 μm. […]

T1 sequence (P14740 whole entry): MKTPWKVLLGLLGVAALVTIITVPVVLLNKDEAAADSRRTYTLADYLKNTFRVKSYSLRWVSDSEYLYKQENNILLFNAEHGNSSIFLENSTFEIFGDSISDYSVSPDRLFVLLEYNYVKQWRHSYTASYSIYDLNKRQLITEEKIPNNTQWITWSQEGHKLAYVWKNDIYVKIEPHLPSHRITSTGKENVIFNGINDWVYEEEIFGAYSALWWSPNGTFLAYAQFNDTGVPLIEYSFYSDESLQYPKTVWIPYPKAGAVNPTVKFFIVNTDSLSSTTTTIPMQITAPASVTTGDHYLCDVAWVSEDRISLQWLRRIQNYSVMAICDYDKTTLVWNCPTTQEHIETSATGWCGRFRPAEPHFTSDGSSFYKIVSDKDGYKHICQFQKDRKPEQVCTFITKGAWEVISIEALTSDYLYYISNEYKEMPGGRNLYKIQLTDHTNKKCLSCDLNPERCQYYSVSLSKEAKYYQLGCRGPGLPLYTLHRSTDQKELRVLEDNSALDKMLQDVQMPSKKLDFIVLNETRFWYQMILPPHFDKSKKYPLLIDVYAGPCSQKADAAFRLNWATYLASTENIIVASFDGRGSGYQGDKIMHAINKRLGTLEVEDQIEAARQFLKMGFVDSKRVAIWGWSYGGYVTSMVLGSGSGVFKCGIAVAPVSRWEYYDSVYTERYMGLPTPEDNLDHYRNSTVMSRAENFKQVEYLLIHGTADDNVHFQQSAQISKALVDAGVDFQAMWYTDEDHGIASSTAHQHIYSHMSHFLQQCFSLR

N=c1cc2oc3cc(N)ccc3nc-2c2ccccc12 [cresyl violet]
fading of fluorescence during measurements in time ([1]; FIG. 2B): Fading did not occur to any significant extent | amount corresponding with 100 gray values ([1]; image analysis calibration, FIG. 2A): 6.7 fmol | linearity of fluorescence with concentration (up to) ([1]; thin film of 24 μm, Krebs-Henseleit medium): at least 10 μM | water solubility [2]: sufficiently water soluble

C[C@H](N)C(=O)N1CCCCC1P(=O)(Oc1ccc(Cl)cc1)Oc1ccc(Cl)cc1 (some centres unmarked) [Ala-Pip^p (OPh-4Cl)2, Ala-Pip^p (OPh-4-Cl)2]
Ki [3]: 7 µM | mode of inhibition of DPPIV [3]: selective competitive inhibitor | mode of inhibition of DPPIV ([3]; listed as dipeptide phosphonate inhibitor): competitively

C[C@H](N)C(=O)N1CCC[C@H]1C(=O)NC1=CC2Oc3cc(NC(=O)[C@@H]4CCCN4C(=O)[C@H](C)N)ccc3N=C2c2ccccc21 (stereo partly drawn) [Ala-Pro-cresyl violet, [Ala-Pro]^2-cresyl violet]
Vmax in individual hepatocytes [3]: 4-16 nU | Km ([3]; hepatocytes): 6 to 22 µM | conversion rate in the rat with the highest Vmax and lowest Km vs rat with the lowest Vmax and highest Km ([3]; physiological substrate concentrations): 10- to 20 fold | inverse relationship between Km and Vmax in membrane fractions [4]: lost
